Results on 41 molecules are retold here after patent publication US20150126507A1, “COMPOUNDS TO TREAT HEARING LOSS” (Fate Therapeutics, Inc., priority 2013, published 2015).

First the molecules themselves.
B1: AHR siRNA: pool of four siRNA sequences against human AHR (Thermo Scientific) (nucleic acid)
guide 1: GCAAGUUAAUGGCAUGUUU
guide 2: GAACUCAAGCUGUAUGGUA
guide 3: GCACGAGAGGCUCAGGUUA
guide 4: GCAACAAGAUGAGUCUAUU
modifications: pool of four siRNAs, further chemistry not given here

One data set has as its system Atoh1 enhancer reporter in HEK293 cells. In words: Atoh1 reporter cell line, firefly luciferase normalized to renilla luciferase. It is filed as cell-based. The settings on record: Atoh1 reporter cell line treated with AHR agonists for 2 days. As to the method:
FIG. 2. Dose response data for selected hits. Atoh1 reporter cells plated in 384 well plates were treated with test compounds or vehicle controls for 2 days. Firefly luciferase signal was measured and normalized to the renilla luciferase signal. Results from duplicate wells (circles and triangles) are expressed relative to normalized controls treated with DMSO.
A reporter cell line expressed in HEK293 cells in which Atoh1 enhancer elements flanked a minimal promoter driving firefly luciferase expression was created. Dose response data was generated in the reporter cell line. Atoh1 reporter cells plated in […] plates were treated with test compounds or vehicle controls for 2 days. Firefly luciferase signal was measured and normalized to the renilla luciferase signal.
For high-throughput screening, HEK293 cells were transduced with a lentiviral vector containing a concatamer of Atoh1 enhancer A and B elements, the Promega minP minimal promoter, firefly luciferase coding sequence and hygromycin selectable marker. After selection, the cells were transduced with a second lentiviral vector containing the EF1α constitutive promoter, Renilla luciferase and puromycin selectable marker. A clonal derivative expressing both transgenes was expanded and banked for screening.
A screening assay was done by plating 8000 cells/well in 384 well plates, and treating for 48 hours with 1 and 10 μM test compound in DMSO, vehicle control, or the GSK-3B inhibitor, BIO, as a positive control. Firefly and Renilla luciferase were measured sequentially using Dual-Glo (Promega) with an Envision multi-label plate reader (Perkin Elmer). Data were analyzed after normalizing firefly luciferase signals to Renilla luciferase signals. A primary screen of 50,000 diverse compounds identified 140 hits. […] 10 of these 41 hits were selected for further analysis
To confirm activity in the 10 selected hits, the test compounds were reassayed at 3.3×10^−9, 1×10^−8, 3.3×10^−8, 1×10^−7, 3.3×10^−7, 1×10^−6, 3.3×10^−6 and 1×10^−5 molar concentrations. […] Results from duplicate wells (circles and triangles) are expressed relative to normalized controls treated with DMSO.
As for `Br.Cc1ccc(C(=O)Cn2c3c(sc2=N)CCCC3)cc1` [Pfithrin-α-hydrobromide, reference compound], the Atoh1 reporter activity entry is recorded as “stimulated Atoh1 reporter activity”.

For `CN1C(=O)/C(=C2\Nc3ccccc3\C2=N/O)c2ccc(Br)cc21` [MeBIO, reference compound], the Atoh1 reporter activity entry is given as “stimulated Atoh1 reporter activity”.

For `COC(=O)c1csc(C(=O)c2c[nH]c3ccccc23)n1` [ITE, reference compound], the Atoh1 reporter activity result was “stimulated Atoh1 reporter activity”.

Still in this data set, the particulars now being: Homo sapiens, HEK293, 48 h, Atoh1 reporter HEK293 cells, treated 2 days, dose response; read-out: ED50 (the source's name).
For `Cc1nc(NC(=O)c2oc3ccccc3c2C)sc1C(=O)N(C)C` [Compound 9], the EC50 stood at 1700 nM.

Regarding `CN(C(=O)c1cc2cccc(Br)c2o1)c1nccs1` [Compound 29], the EC50 worked out at 1400 nM.

For the molecule `O=C(Nc1nccs1)c1cc2cc(Br)ccc2o1` [Compound 30], the EC50 was greater than 3000 nM.

Consider `O=C(Nc1nccs1)c1oc2ccccc2c1COc1ccccc1` [Compound 24], for which the EC50 turned out to be 700 nM.

As for `Cc1csc(NC(=O)c2oc3ccc(F)cc3c2C)n1` [Compound 37], the EC50 came out at 2300 nM.

Turning to `COc1ccc2oc(C(=O)Nc3nc(CN4CCOCC4)cs3)c(C)c2c1` [Compound 21], the EC50 worked out at 900 nM.

Take `CCc1nc(NC(=O)c2oc3c(F)cccc3c2C)sc1C` [Compound 32]: the EC50 is 1000 nM.

With `Cc1csc(NC(=O)c2oc3c(Cl)cccc3c2C)n1` [Compound 38], the EC50 was greater than 3000 nM.

With `Cc1c(C(=O)Nc2nccs2)oc2ccc(Br)cc12` [Compound 36], the EC50 turned out to be 800 nM.

On to `COc1ccc2nc(NC(=O)c3oc4ccccc4c3C)sc2c1` [Compound 11], for which the EC50 was 700 nM.

Turning to `Cc1csc(NC(=O)c2oc3ccc(Br)cc3c2C)n1` [Compound 34], the EC50 stood at 1600 nM.

For the molecule `Cc1c(C(=O)Nc2nccs2)oc2c1ccc1ccccc12` [Compound 18], the EC50 was greater than 3000 nM.

As to `CSCc1c(C(=O)Nc2nccs2)oc2ccccc12` [Compound 22], the EC50 turned out to be 500 nM.

In the case of `Cc1c(C(=O)Nc2nccs2)oc2c(Cl)cccc12` [Compound 19], the EC50 amounted to 700 nM.

For `CCOc1ccc2oc(C(=O)Nc3nccs3)c(C)c2c1` [Compound 23], the EC50 amounted to 500 nM.

As to `Cc1csc(N(C(=O)c2cc3ccccc3o2)c2ccccc2)n1` [Compound 26], the EC50 is greater than 3000 nM.

For the molecule `COCc1c(C(=O)Nc2nccs2)oc2ccccc12` [Compound 25], the EC50 stood at 1700 nM.

For `COc1cccc2cc(C(=O)Nc3nccs3)oc12` [Compound 16], the EC50 came to 2700 nM.

Turning to `Cc1c(C(=O)Nc2nc(S(C)(=O)=O)cs2)oc2ccccc12` [Compound 8], the EC50 worked out at 1100 nM.

Regarding `Cc1nc(NC(=O)c2oc3ccccc3c2C)sc1C` [Compound 3], the EC50 was 2700 nM.

Turning to `Cc1c(C(=O)Nc2nc3ccc(Cl)cc3s2)oc2ccccc12` [Compound 12], the EC50 was 600 nM.

As to `Cc1c(C(=O)Nc2nc(C(C)(C)C)cs2)oc2ccccc12` [Compound 7], the EC50 stood at 1300 nM.

In the case of `CN(C(=O)c1cc2ccccc2o1)c1nccs1` [Compound 2, N-methyl-N-(thiazol-2-yl)benzofuran-2-carboxamide], the EC50 came out at 700 nM.

As to `CSCc1c(C(=O)Nc2nc(C)cs2)oc2ccccc12` [Compound 28], the EC50 amounted to 1300 nM.

Regarding `O=C(Nc1nc2c(s1)CCCC2)c1cc2ccccc2o1` [Compound 17], the EC50 turned out to be 400 nM.

With `Cc1c(C(=O)N(C)c2nccs2)oc2ccccc12` [Compound 1, N,3-dimethyl-N-(thiazol-2-yl)benzofuran-2-carboxamide], the EC50 stood at 1600 nM.

Turning to `Cc1cnc(NC(=O)c2cc3ccccc3o2)s1` [Compound 27], the EC50 is 200 nM.

In the case of `Cc1c(C(=O)Nc2nc(-c3ccccc3)cs2)oc2ccccc12` [Compound 6], the EC50 stood at 1300 nM.

For the molecule `CC(=O)c1sc(NC(=O)c2cc3ccccc3o2)nc1C` [Compound 39], the EC50 was 500 nM.

For the molecule `CCOC(=O)c1sc(NC(=O)c2oc3ccccc3c2C)nc1C` [Compound 5], the EC50 is 700 nM.

As for `COc1cccc2cc(C(=O)Nc3ncc(C)s3)oc12` [Compound 15], the EC50 stood at 1000 nM.

As for `COc1ccc2oc(C(=O)Nc3nc(C)cs3)c(C)c2c1` [Compound 35], the EC50 came to 500 nM.

As to `O=C(Nc1nccs1)c1cc2ccccc2o1` [Compound 13], the EC50 was found to be 400 nM.

Turning to `Cc1c(C(=O)Nc2nccs2)oc2ccc(Cl)cc12` [Compound 41], the EC50 came to 400 nM.

As for `Cc1c(C(=O)Nc2nccs2)oc2ccc(F)cc12` [Compound 31], the EC50 amounted to 600 nM.

For the molecule `Cc1cnc(NC(=O)c2oc3ccc(Br)cc3c2C)s1` [Compound 33], the EC50 amounted to 400 nM.

The next data set deals with P5 rat cochlear explants. In words: Tobramycin treatment of cochlear explants, hair cell and supporting cell marker mRNA. It is filed as cell-based. Conditions: tobramycin 1 mM, 3 days. How it is done: The ten selected hits of Example 43 were assayed for the ability to induce Atoh1 expression in primary cultured cochlear explants from the neonatal rat. Postnatal day 5 (P5) rat cochlear explants were cultured with the ototoxic aminoglycoside antibiotic, tobramycin (1 mM), for 3 days prior to drug testing, as an in vitro model of drug-induced hearing loss. […] See, e.g., Ruedi, et al., Larynoscope 62:333-357 (1952). After the 3 day tobramycin pretreatment, the cochlear explants were cultured with the compounds of Example 43 or DMSO vehicle for an additional 2 days. Atoh1 expression levels, measured by qRT-PCR and normalized to ribosomal 18S expression, after hit compound treatments are shown in FIG. 3.
With `NC[C@H]1O[C@H](O[C@H]2[C@H](O)[C@@H](O[C@H]3O[C@H](CO)[C@@H](O)[C@H](N)[C@H]3O)[C@H](N)C[C@@H]2N)[C@H](N)C[C@@H]1O` [tobramycin], the “Sox2 mRNA (supporting cell marker)” value is given as “without reducing”, the “reduction of Atoh1 mRNA level” value is listed as “more than 80%” and the “reduction of MYO7A mRNA level” value is on record as “more than 80%”.

The target in the next data set is T1, AHR (Homo sapiens, UniProt P35869).
T1 construct: HEK293 cells were transduced with a lentiviral vector containing a concatamer of Atoh1 enhancer A and B elements; endogenous in cells; host or cells: HEK293-derived Atoh1 reporter cell line
T1 sequence (P35869 11-848): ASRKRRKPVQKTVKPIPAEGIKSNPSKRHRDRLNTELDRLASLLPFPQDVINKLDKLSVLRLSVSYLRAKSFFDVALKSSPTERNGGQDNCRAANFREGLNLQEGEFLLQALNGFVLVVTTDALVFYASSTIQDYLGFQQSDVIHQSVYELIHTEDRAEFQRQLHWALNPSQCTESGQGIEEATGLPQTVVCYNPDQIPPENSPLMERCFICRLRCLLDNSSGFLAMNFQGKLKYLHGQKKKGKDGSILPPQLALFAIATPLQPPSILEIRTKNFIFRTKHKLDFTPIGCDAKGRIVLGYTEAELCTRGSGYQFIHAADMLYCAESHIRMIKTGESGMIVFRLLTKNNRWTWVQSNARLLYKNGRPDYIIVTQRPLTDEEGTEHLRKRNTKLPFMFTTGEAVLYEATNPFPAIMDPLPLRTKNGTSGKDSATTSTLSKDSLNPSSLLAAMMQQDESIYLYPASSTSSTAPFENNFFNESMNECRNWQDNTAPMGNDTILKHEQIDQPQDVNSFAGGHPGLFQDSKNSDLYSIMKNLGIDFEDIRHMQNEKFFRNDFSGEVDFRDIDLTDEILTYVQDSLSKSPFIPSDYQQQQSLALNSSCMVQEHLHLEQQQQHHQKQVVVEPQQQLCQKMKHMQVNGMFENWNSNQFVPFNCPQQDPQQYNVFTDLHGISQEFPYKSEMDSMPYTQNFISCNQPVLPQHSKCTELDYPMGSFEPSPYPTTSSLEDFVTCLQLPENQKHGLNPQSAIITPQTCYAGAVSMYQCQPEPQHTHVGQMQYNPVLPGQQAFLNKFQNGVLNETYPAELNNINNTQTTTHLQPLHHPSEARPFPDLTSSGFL
Briefly: AHR siRNA analysis in Atoh1 reporter cell line, luciferase assay and qRT-PCR. Conditions: 75 nM siRNA, 5 μM Compound 4 for 48 hours, luciferase assay. It is filed as cell-based. How it is done:
An siRNA analysis was used to determine if AHR is required for the Atoh1-inducing activity of Compound 4. One day before transfection, the Atoh1 reporter cell line was plated at 1.5×10^5 cells/well in a 24-well plate. The cells were transfected with 75 nM on-target plus human AHR siRNA SMART pool or Non-target pool using DharmaFECT1 (Thermo Scientific). AHR siRNA sequences in the SMART pool were GCAAGUUAAUGGCAUGUUU, GAACUCAAGCUGUAUGGUA, GCACGAGAGGCUCAGGUUA, and GCAACAAGAUGAGUCUAUU. Mock-transfected cells served as an additional negative control. 16 hours after transfection, media were replaced with fresh complete medium containing 5 μM Compound 4 or DMSO. After 48 hours of treatment, cells were analyzed by luciferase assay and qRT-PCR.
AHR siRNA reduced AHR expression by 69%, while the control siRNA was without effect. […] Results are expressed in FIGS. 6A and 6B as the average±S.D. for triplicate wells. […] See, e.g., Ben-Arie, et al., Human Mol. Genetics 5(9):1207-1216 (1996).
In the case of B1, the “reduction of Compound 4-mediated Atoh1 reporter activity” value worked out at 54%.

The data set is the same for the next values; noted with them: 75 nM siRNA, qRT-PCR.
As for B1, the “reduction of AHR expression” value stood at 69%.
